Experimental data taken from the supplement of paper PMC13380429.

Legend:
Conditions in all cases: 72 h
Caco-2 [1] = experiment: relative viability EC50 (midpoint between 100% and the lowest measured viability); higher = less toxic
Calu-3 [2] = experiment: as above
HepG2 [3] = experiment: as above
U2OS [4] = experiment: as above
Vero E6 [5] = experiment: as above
Caco-2 [6] = experiment: cell viability relative to DMSO; higher = less toxic
Calu-3 [7] = experiment: as above
HepG2 [8] = experiment: as above
U2OS [9] = experiment: as above
Vero E6 [10] = experiment: as above
Caco-2 [11] = experiment: drug sensitivity score (DSS) for viability; higher = more toxic; extreme values may be limits of the assay
Calu-3 [12] = experiment: as above
HepG2 [13] = experiment: as above
U2OS [14] = experiment: as above
Vero E6 [15] = experiment: as above

Row | SMILES | relative viability EC50 (Caco-2 [1]) | relative viability EC50 (Calu-3 [2]) | relative viability EC50 (HepG2 [3]) | relative viability EC50 (U2OS [4]) | relative viability EC50 (Vero E6 [5]) | cell viability (Caco-2 [6]; 1 nM) | cell viability (Caco-2 [6]; 10 nM) | cell viability (Caco-2 [6]; 100 nM) | cell viability (Caco-2 [6]; 1000 nM) | cell viability (Caco-2 [6]; 10000 nM) | cell viability (Calu-3 [7]; 1 nM) | cell viability (Calu-3 [7]; 10 nM) | cell viability (Calu-3 [7]; 100 nM) | cell viability (Calu-3 [7]; 1000 nM) | cell viability (Calu-3 [7]; 10000 nM) | cell viability (HepG2 [8]; 1 nM) | cell viability (HepG2 [8]; 10 nM) | cell viability (HepG2 [8]; 100 nM) | cell viability (HepG2 [8]; 1000 nM) | cell viability (HepG2 [8]; 10000 nM) | cell viability (U2OS [9]; 1 nM) | cell viability (U2OS [9]; 10 nM) | cell viability (U2OS [9]; 100 nM) | cell viability (U2OS [9]; 1000 nM) | cell viability (U2OS [9]; 10000 nM) | cell viability (Vero E6 [10]; 1 nM) | cell viability (Vero E6 [10]; 10 nM) | cell viability (Vero E6 [10]; 100 nM) | cell viability (Vero E6 [10]; 1000 nM) | cell viability (Vero E6 [10]; 10000 nM) | drug sensitivity score (Caco-2 [11]) | drug sensitivity score (Calu-3 [12]) | drug sensitivity score (HepG2 [13]) | drug sensitivity score (U2OS [14]) | drug sensitivity score (Vero E6 [15])
1 | CCCCCCCCCCCCCCCCCCCCCCO [docosanol] | > 10 µM | > 10 µM | > 10 µM | > 10 µM | > 10 µM | 95.8% | 92.2% | 99.5% | 116% | 82.1% | 87.6% | 97.6% | 96.4% | 102% | 96.5% | 104% | 100% | 104% | 93.2% | 85.1% | 92.3% | 96.2% | 94.6% | 98.6% | 105% | 108% | 98.4% | 98.2% | 88.4% | 104% | 0.2 | 0 | 0.7 | 0 | 0
2 | C=C1/C(=C\C=C2/CCC[C@]3(C)[C@@H]([C@H](C)/C=C/[C@H](C)C(C)C)CC[C@@H]23)C[C@@H](O)C[C@@H]1O [doxercalciferol] | > 10 µM | > 10 µM | > 10 µM | > 10 µM | > 10 µM | 104% | 103% | 96.3% | 98.2% | 97.2% | 95.3% | 102% | 99.9% | 95.8% | 111% | 101% | 94.8% | 99.8% | 96.4% | 99.9% | 92.2% | 102% | 94.9% | 96.7% | 100% | 97.7% | 101% | 97.1% | 95.9% | 106% | 0 | 0 | 0 | 0 | 0
3 | CCCCCCCC(=O)N[C@H](CN1CCCC1)[C@H](O)c1ccc2c(c1)OCCO2 [eliglustat] | > 10 µM | > 10 µM | > 10 µM | > 10 µM | > 10 µM | 103% | 96.7% | 95.1% | 99.8% | 99.8% | 98.7% | 98.3% | 96% | 99.5% | 93.2% | 100% | 109% | 95.8% | 108% | 92% | 101% | 95.4% | 97.8% | 94.6% | 95.3% | 97.3% | 91.6% | 84.3% | 84.2% | 85.5% | 0 | 0 | 0 | 0 | 3.1
4 | CCOCCn1c(N2CCCN(C)CC2)nc2ccccc21 [emedastine] | > 10 µM | > 10 µM | > 10 µM | > 10 µM | > 10 µM | 97.3% | 102% | 102% | 95.4% | 91.2% | 94.2% | 101% | 99.3% | 112% | 106% | 89% | 98.4% | 92.7% | 101% | 107% | 97.4% | 96.3% | 93% | 98.4% | 96% | 99.1% | 105% | 100% | 98.4% | 99.8% | 0 | 0 | 0 | 0 | 0
5 | OC[C@H]1O[C@@H](c2ccc(Cl)c(Cc3ccc(O[C@H]4CCOC4)cc3)c2)[C@H](O)[C@@H](O)[C@@H]1O [empagliflozin] | > 10 µM | > 10 µM | > 10 µM | > 10 µM | > 10 µM | 95% | 97.3% | 102% | 94.7% | 104% | 87.9% | 110% | 114% | 98.7% | 101% | 99.4% | 109% | 91.9% | 109% | 117% | 98.6% | 92.3% | 103% | 96.7% | 96.4% | 90% | 103% | 95% | 94.9% | 106% | 0 | 0 | 0 | 0 | 0
6 | CSc1ccc(C(=O)c2[nH]c(=O)[nH]c2C)cc1 [enoximone] | > 10 µM | > 10 µM | > 10 µM | > 10 µM | > 10 µM | 92.8% | 87.2% | 100% | 111% | 87% | 106% | 101% | 94.2% | 96.7% | 101% | 96.6% | 95.8% | 103% | 82.5% | 100% | 99.2% | 97.9% | 101% | 108% | 105% | 99.6% | 99.6% | 86% | 90.6% | 94.9% | 0 | 0 | 0 | 0 | 0
7 | CCOc1ccc(Cc2cc([C@]34OC[C@](CO)(O3)[C@@H](O)[C@H](O)[C@H]4O)ccc2Cl)cc1 [ertugliflozin] | > 10 µM | > 10 µM | > 10 µM | > 10 µM | > 10 µM | 96.8% | 96.9% | 90.5% | 89.9% | 103% | 106% | 99.1% | 104% | 98.7% | 96.4% | 108% | 109% | 107% | 98.6% | 98.6% | 101% | 102% | 102% | 98.1% | 101% | 102% | 104% | 95.1% | 101% | 102% | 0 | 0 | 0 | 0 | 0
8 | CCc1cc(Cl)c(OC)c(C(=O)NC[C@@H]2CCCN2CC)c1O [eticlopride] | > 10 µM | > 10 µM | > 10 µM | > 10 µM | > 10 µM | 102% | 101% | 92.5% | 103% | 87% | 105% | 102% | 103% | 99.9% | 98.5% | 115% | 108% | 121% | 106% | 91.4% | 99.1% | 106% | 96.3% | 103% | 94.8% | 107% | 102% | 106% | 102% | 94.7% | 0.1 | 0 | 0 | 0 | 0
9 | Cc1cc(C)c2c(c1)[C@@H](N(Cc1cc(C(F)(F)F)cc(C(F)(F)F)c1)c1nnn(C)n1)CCCN2C[C@H]1CC[C@H](C(=O)O)CC1 [evacetrapib] | > 10 µM | > 10 µM | > 10 µM | > 10 µM | > 10 µM | 90.6% | 94.9% | 108% | 99.8% | 97.3% | 97% | 88.9% | 100% | 96.9% | 89.9% | 97% | 100% | 95.6% | 99.5% | 104% | 98.1% | 100% | 97.5% | 103% | 91.9% | 96.1% | 97.3% | 95.7% | 93.3% | 102% | 0 | 0 | 0 | 0 | 0
10 | CCOC(=O)C1=C(C)NC(C)=C(C(=O)OC)C1c1cccc(Cl)c1Cl (stereo not given) [felodipine] | > 10 µM | > 10 µM | > 10 µM | > 10 µM | > 10 µM | 101% | 102% | 104% | 91.8% | 99% | 89.8% | 101% | 111% | 98.2% | 102% | 105% | 107% | 99.5% | 99.2% | 96.9% | 106% | 96.7% | 99.7% | 97.4% | 100% | 99.2% | 103% | 101% | 103% | 94.7% | 0 | 0 | 0 | 0 | 0
11 | O=C1NCC2(CCN(CCc3ccccc3)CC2)O1 [fenspiride] | > 10 µM | > 10 µM | > 10 µM | > 10 µM | > 10 µM | 99% | 103% | 91.2% | 101% | 104% | 96.6% | 92.5% | 85% | 92.3% | 98.9% | 96.7% | 107% | 100% | 112% | 103% | 105% | 97.7% | 101% | 99.2% | 108% | 94.9% | 98.3% | 97.9% | 103% | 103% | 0 | 0 | 0 | 0 | 0
12 | CC1(C)OC(=O)C(OCC2CC2)=C1c1ccc(S(C)(=O)=O)cc1 [firocoxib] | > 10 µM | > 10 µM | > 10 µM | > 10 µM | > 10 µM | 98.3% | 91.8% | 84.1% | 83.4% | 86.5% | 95.9% | 93.2% | 95.6% | 110% | 104% | 105% | 97.7% | 104% | 103% | 101% | 96.7% | 107% | 95.3% | 97.2% | 102% | 100% | 101% | 99.2% | 96.4% | 98.2% | 3.5 | 0 | 0 | 0 | 0
13 | O=C1NC(c2ccccc2)(c2ccccc2)C(=O)N1COP(=O)(O)O [fosphenytoin] | > 10 µM | > 10 µM | > 10 µM | > 10 µM | > 10 µM | 97.6% | 102% | 86.3% | 104% | 105% | 89.4% | 97.3% | 90.4% | 87.7% | 102% | 97.1% | 92.7% | 100% | 109% | 91.4% | 98% | 98.5% | 101% | 95.1% | 102% | 110% | 84.9% | 102% | 106% | 94.6% | 0 | 0 | 0 | 0 | 0
